The target in this assay is T1, Drosophila OR85b (Drosophila melanogaster, UniProt Q9VHQ7).
T1 construct: expressed in transfected cells
T1 sequence (Q9VHQ7 1-390): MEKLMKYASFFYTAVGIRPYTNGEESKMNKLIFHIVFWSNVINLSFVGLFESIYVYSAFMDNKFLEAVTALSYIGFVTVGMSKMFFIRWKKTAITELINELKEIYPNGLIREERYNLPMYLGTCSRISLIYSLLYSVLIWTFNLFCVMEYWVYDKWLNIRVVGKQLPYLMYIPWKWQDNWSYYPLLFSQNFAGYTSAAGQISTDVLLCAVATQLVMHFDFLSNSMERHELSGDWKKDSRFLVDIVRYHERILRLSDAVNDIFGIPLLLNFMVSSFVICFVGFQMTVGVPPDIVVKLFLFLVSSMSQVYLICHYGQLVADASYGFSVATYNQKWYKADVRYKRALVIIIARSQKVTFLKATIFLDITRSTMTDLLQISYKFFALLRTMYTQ
T1 sequence (Q9VNB5 1-486 partner): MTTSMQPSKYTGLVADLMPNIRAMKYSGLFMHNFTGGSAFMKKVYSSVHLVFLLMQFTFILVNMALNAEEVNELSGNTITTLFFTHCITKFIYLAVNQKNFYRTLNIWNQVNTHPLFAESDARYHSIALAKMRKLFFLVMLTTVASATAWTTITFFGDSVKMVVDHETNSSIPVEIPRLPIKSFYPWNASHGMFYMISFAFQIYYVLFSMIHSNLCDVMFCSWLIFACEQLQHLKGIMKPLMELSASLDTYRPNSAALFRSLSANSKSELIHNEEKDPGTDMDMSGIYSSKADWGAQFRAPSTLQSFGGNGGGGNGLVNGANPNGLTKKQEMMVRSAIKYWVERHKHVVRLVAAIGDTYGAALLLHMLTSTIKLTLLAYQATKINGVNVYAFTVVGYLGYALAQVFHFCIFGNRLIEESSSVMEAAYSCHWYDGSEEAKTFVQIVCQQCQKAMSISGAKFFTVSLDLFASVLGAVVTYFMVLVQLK
The experiment in a line: Calcium ion fluorescence (GCaMP6) assay, OR85b stable HEK293 cell line. In kind it is cell-based. The arrangement: key to DF norm AVERAGE OR85b: VOC ∆F divided by the plate's mean ∆F response to 50 µM VUAA1. Particulars: for OR85b response (VUAA1-normalized) at 1 μM / OR85b response (VUAA1-normalized) at 10 μM / OR85b response (VUAA1-normalized) at 100 μM / Average response: OR85b cell line; for Average response: VUAA1-normalized response, mean of biological replicates. As to the method:
These VUAA1 normalized ∆F values were used to compare the different receptors and ligands.
The concentration-dependent effect of the reference ligands on their cognate cell lines was examined in more detail. Twelve different ligand concentrations were measured on each cell line in an overall 0.01 μM to 100 μM concentration range with 5 repetitions with three technical replicates each time.
Twelve thousand to 18,000 cells were plated into each well of a black wall, transparent bottom 384-well microplate (Greiner) 48 h or 72 h before the measurements and were simultaneously treated with 1 μg/mL doxycycline. […] The plate has 24 columns, thus we could record responses in up to eight different cell lines in each plate. On the day of the experiment, the growth medium was replaced with 20 µL assay buffer/well (140 mM NaCl, 5 mM KCl, 2 mM CaCl2, 1 mM MgCl2, 5 mM HEPES-Na, 20 mM glucose, pH 7.3, 340 mOsm). […] Baseline fluorescence (F0) was recorded for 5 s, after which 7 µL VOC buffer (140 mM NaCl, 5 mM KCl, 2 mM CaCl2, 1 mM MgCl2, 5 mM HEPES-Na, 31 mM glucose, 0.1% DMSO, pH 7.3, 340 mOsm) was injected into each well in one row and the fluorescence response was recorded for an additional 30 s, at a rate of one read/sec. VOC solutions (VOC buffer with 4× concentration of the final measured VOC concentration, 9 µL/well was injected) were measured on the same wells in a second round with the same protocol. Each individual concentration of a specific VOC sample was recorded in three wells for the same cell line on the same microplate. The raw data were exported in xls file format, F0 and FMAX values, and the fluorescence intensity changes (∆F) were calculated in Excel (Microsoft) (Supplementary file Data summary.xlsx) using the following equation: ΔF=FMAX-F0/F0 (see also Fig. 1C). On each plate, we recorded the response of each cell line to 50 µM VUAA1. The average of these ∆F values of each cell line were used to calculate the VUAA1-normalized values for the rest of the plate, by dividing VOC response ∆F values by the average VUAA1 response ∆F value of the corresponding OR cell line. Each VOC-OR combination was measured three times as technical replicates. […] The average of these replicates were used as one ∆F and VUAA1-normalized ∆F in the following analysis.
In the next rows we tested the reference VOCs (or other VOCs known to activate the corresponding cell lines), in order to test if all cell lines are responsive. The remaining rows were used to test VOCs with unknown effect.
The recorded FMAX, F0, ∆F, VUAA1-normalized ∆F values, as well as the OR name, the name of the tested sample, and the final concentration for each well were copied into supplementary file Data summary.xlsx, that was used to summarize all the plates recorded. Here, the averages of the measurements were calculated for each receptor-VOC-concentration combination.

The mark [1] stands for this setting: HEK293, read-out: OR85b Average response (VUAA1-normalized).
[2] abbreviates: ligand concentration 1 (unit not given), 0.05 threshold, values below shown as 0.
Where [3] appears, read: ligand concentration 10 (unit not given), 0.05 threshold, values below shown as 0.
[4] abbreviates: ligand concentration 100 (unit not given), 0.05 threshold, values below shown as 0.
[5] abbreviates: ligand concentration 1 (unit not given), threshold 0.05, below shown as 0.
The mark [6] stands for this setting: ligand concentration 10 (unit not given), threshold 0.05, below shown as 0.
[7] abbreviates: ligand concentration 100 (unit not given), threshold 0.05, below shown as 0.
[8] abbreviates: concentration 1, normalized fluorescence change, values below 0.05 threshold given as 0.
The mark [9] stands for this setting: concentration 10, normalized fluorescence change, values below 0.05 threshold given as 0.
Setting [10] is: concentration 100, normalized fluorescence change, values below 0.05 threshold given as 0.
[11] abbreviates: HEK293, read-out: OR85b response (VUAA1-normalized response).

Read-outs that look alike come from different tables or passages of the source.

As for `Cc1ccccc1` [toluene], the activation at 1 µM under setting [1] is 8%. Moreover, the activation at 10 µM under setting [1] was found to be 7%. Further, under setting [1], the activation at 100 µM came out at 11%. Moreover, the “OR85b response (VUAA1-normalized) at 1 μM” value (VOC concentration 1 μM) was found to be 0.0843. For the setting “VOC concentration 10 μM”, the “OR85b response (VUAA1-normalized) at 10 μM” value amounted to 0.07. Also, the “OR85b response (VUAA1-normalized) at 100 μM” value (VOC concentration 100 μM) is listed as 0.11. The Average response turned out to be 0.0843 (cc. 1 µM), 0.07 (cc. 10 µM) and 0.11 (cc. 100 µM). For the same compound, the “DF norm AVERAGE OR85b” value runs as follows: under setting [2], 0.08429; under setting [3], 0.067; under setting [4], 0.1125.
Turning to `C=Cc1ccccc1` [styrene], for the setting “VOC concentration 1 μM”, the “OR85b response (VUAA1-normalized) at 1 μM” value came out at 0.00. Besides, the “OR85b response (VUAA1-normalized) at 10 μM” value (VOC concentration 10 μM) is on record as 0.00. Also, the “OR85b response (VUAA1-normalized) at 100 μM” value (VOC concentration 100 μM) is listed as 0.00. Further, the Average response (cc. 1 µM) came to 0.00, the Average response (cc. 10 µM) was found to be 0.00 and the Average response (cc. 100 µM) came out at 0.0181. In addition, the “DF norm AVERAGE OR85b” value is, setting by setting: under setting [2], 0; under setting [3], 0; under setting [4], 0.
For `CC1=CCC23CC1C(C)(C)C2CCC3C` (stereo not drawn) [α-funebrene], the activation at 1 µM under setting [1] was found to be 10%. Further, the activation at 10 µM under setting [1] worked out at 0%. The activation at 100 µM under setting [1] was found to be 26%. Also, where the note is “VOC concentration 1 μM”, the “OR85b response (VUAA1-normalized) at 1 μM” value came out at 0.10. The “OR85b response (VUAA1-normalized) at 10 μM” value (VOC concentration 10 μM) is recorded as 0.00. The “OR85b response (VUAA1-normalized) at 100 μM” value (VOC concentration 100 μM) amounted to 0.26. Besides, the Average response was determined as 0.10 (cc. 1 µM), 0.00 (cc. 10 µM) and 0.26 (cc. 100 µM). Further, the “DF norm AVERAGE OR85b” value is, setting by setting: under setting [2], 0.09747; under setting [3], 0; under setting [4], 0.2621.
Consider `C=C1CCC2(C(C)C)CC12` (stereo not drawn) [sabinene], for which the “OR85b response (VUAA1-normalized) at 1 μM” value (VOC concentration 1 μM) amounted to 0.0647. Further, the “OR85b response (VUAA1-normalized) at 10 μM” value (VOC concentration 10 μM) was 0.00. For the same compound, where the note is “VOC concentration 100 μM”, the “OR85b response (VUAA1-normalized) at 100 μM” value turned out to be 0.09. Further, the Average response reads like this: (cc. 1 µM) 0.0647; (cc. 10 µM) 0.0439; (cc. 100 µM) 0.09. Further, the “DF norm AVERAGE OR85b” value runs as follows: under setting [5], 0.06468; under setting [6], 0; under setting [7], 0.08701.
With `CC1=CCC[C@@]2(C)[C@@H]3CC[C@]12CC3(C)C` [(−)-α-neoclovene], the Average response is on record as 0.00 (cc. 1 µM), 0.00 (cc. 10 µM) and 0.0165 (cc. 100 µM). Further, the “OR85b response (VUAA1-normalized response)” value was 0.00 (VOC concentration 1 μM), 0.00 (VOC concentration 10 μM) and 0.00 (VOC concentration 100 μM). The “DF norm AVERAGE OR85b” value is, setting by setting: under setting [8], 0; under setting [9], 0; under setting [10], 0.
For `CCc1ccccc1` [ethylbenzene], the activation at 1 µM under setting [11] is 0%. For the same compound, the activation at 10 µM under setting [11] is 0%. Further, under setting [11], the activation at 100 µM turned out to be 0%. Moreover, the Average response reads like this: (cc. 1 µM) 0.00719; (cc. 10 µM) 0.00; (cc. 100 µM) 0.00. Besides, the “DF norm AVERAGE OR85b” value under setting [5] worked out at 0, the “DF norm AVERAGE OR85b” value under setting [6] is given as 0 and the “DF norm AVERAGE OR85b” value under setting [7] turned out to be 0.
On to `CCCCCCCCC(CO)CCCCCC` (stereo not drawn) [2-hexyl-1-decanol], for which the activation at 1 µM under setting [11] was 13%. For the same compound, the activation at 10 µM under setting [11] was 7%. Besides, the activation at 100 µM under setting [11] was 8%. Besides, the Average response runs as follows: (cc. 1 µM) 0.13; (cc. 10 µM) 0.07; (cc. 100 µM) 0.08. Further, the “DF norm AVERAGE OR85b” value by setting is: under setting [8], 0.1336; under setting [9], 0.06997; under setting [10], 0.07977.
For `CCCCCC(=O)CC` [3-octanone], the activation at 1 µM under setting [11] stood at 0%. In addition, the activation at 10 µM under setting [11] is 0%. Moreover, the activation at 100 µM under setting [11] was determined as 9%. Besides, the Average response runs as follows: (cc. 1 µM) 0.00; (cc. 10 µM) 0.00; (cc. 100 µM) 0.09. The “DF norm AVERAGE OR85b” value amounted to 0 under setting [8], 0 under setting [9] and 0.08805 under setting [10].
As to `Cc1ccc(C)cc1` [p-xylene], the “OR85b response (VUAA1-normalized) at 1 μM” value (VOC concentration 1 μM) is reported as 0.00. In addition, the “OR85b response (VUAA1-normalized) at 10 μM” value (VOC concentration 10 μM) is 0.15. For the same compound, where the note is “VOC concentration 100 μM”, the “OR85b response (VUAA1-normalized) at 100 μM” value is given as 0.06. Moreover, the Average response runs as follows: (cc. 1 µM) 0.0373; (cc. 10 µM) 0.15; (cc. 100 µM) 0.06. Besides, the “DF norm AVERAGE OR85b” value by setting is: under setting [5], 0; under setting [6], 0.1515; under setting [7], 0.06066.
For `C=CC(O)C/C=C\CC` (stereo not drawn) [(5Z)-octa-1,5-dien-3-ol], under setting [11], the activation at 1 µM came out at 7%. Further, the activation at 10 µM under setting [11] was determined as 9%. In addition, the activation at 100 µM under setting [11] came to 0%. The Average response worked out at 0.07 (cc. 1 µM), 0.09 (cc. 10 µM) and 0.00 (cc. 100 µM). Further, the “DF norm AVERAGE OR85b” value reads like this: under setting [8], 0.07163; under setting [9], 0.08739; under setting [10], 0.
As to (+)-beta-cedrene, the Average response is given as 0.00 (cc. 1 µM), 0.0468 (cc. 10 µM) and 0.0135 (cc. 100 µM). The “OR85b response (VUAA1-normalized response)” value reads like this: (VOC concentration 1 μM) 0.00; (VOC concentration 10 μM) 0.00; (VOC concentration 100 μM) 0.00. The “DF norm AVERAGE OR85b” value is reported as 0 under setting [8], 0 under setting [9] and 0 under setting [10].

(Values after article PMC10709440, “High-throughput ligand profile characterization in novel cell lines expressing seven heterologous insect olfactory receptors for the detection of volatile plant biomarkers” (Scientific Reports, 2023).)
